# Several values for one entry are separate records, joined by “and”; a condition that tells them apart may be missing. Identical values can stand only once.
# Assays:
# [1] = molecular target: T1, glyceraldehyde 3-phosphate dehydrogenase (PfGAPDH, wild-type) (Plasmodium falciparum, UniProt Q8IKK7); assay: Michaelis-Menten kinetics of purified enzyme (Abs340, NADH formation); type: biochemical
# T1 construct: gene PF3D7_1462800; recombinant PfGAPDH, N-terminal 6x-His tag, N-term and C-term modifications for improved solubility
# [2] = molecular target: Plasmodium falciparum glyceraldehyde 3-phosphate dehydrogenase V238A variant (recombinant) (Plasmodium falciparum) (UniProt Q8IKK7); assay: SEC; analytical size exclusion chromatography; 1mg of purified protein in 1mL of FPLC buffer (100mM Tris-HCl pH 7.5, 1mM MgCl2, 1mM DTT, 10% w/v glycerol); all proteins prepped the same day and dialyzed in the same buffer the night before at 4°C
# [3] = molecular target: T1, glyceraldehyde 3-phosphate dehydrogenase (PfGAPDH, wild-type); assay: heme titration by absorption spectroscopy (purified protein); enzyme inhibition also measured, EC50 =[…]; type: binding
# [4] = molecular target: T2, glyceraldehyde 3-phosphate dehydrogenase (PfGAPDH I209T) (Plasmodium falciparum, UniProt Q8IKK7, I209T); assay: heme titration by absorption spectroscopy (purified protein); type: binding
# T2 construct: gene PF3D7_1462800; recombinant PfGAPDH, N-terminal 6x-His tag, N-term and C-term modifications for improved solubility
# [5] = molecular target: Plasmodium falciparum glyceraldehyde 3-phosphate dehydrogenase I209T variant (recombinant) (Plasmodium falciparum) (UniProt Q8IKK7); assay: SEC; analytical size exclusion chromatography; 1mg of purified protein in 1mL of FPLC buffer (100mM Tris-HCl pH 7.5, 1mM MgCl2, 1mM DTT, 10% w/v glycerol); all proteins prepped the same day and dialyzed in the same buffer the night before at 4°C
# [6] = molecular target: Plasmodium falciparum glyceraldehyde 3-phosphate dehydrogenase, wild type (recombinant) (Plasmodium falciparum) (UniProt Q8IKK7); assay: as above
compound,measurement,setting,value
NC(=O)c1ccc[n+]([C@@H]2O[C@H](COP(=O)([O-])OP(=O)(O)OC[C@H]3O[C@@H](n4cnc5c(N)ncnc54)[C@H](O)[C@@H]3O)[C@@H](O)[C@H]2O)c1 [NAD+],"Michaelis-Menten kinetics of purified enzyme (Abs340, NADH formation)",[1],"FSM-resistant and wild-type enzymes shared Michaelis-Menten constants for all three substrates NAD+, GAP, and Pi"
Plasmodium falciparum glyceraldehyde 3-phosphate dehydrogenase V238A variant (recombinant) (from UniProt Q8IKK7 4-335) (enzyme),stoichiometry N,[2],4 and 2
C=CC1=C(C)C2=Cc3c(C=C)c(C)c4[n]3[Fe][n]3c(c(C)c(CCC(=O)O)c3=CC3=NC(=C4)C(C)=C3CCC(=O)O)=CC1=N2 [heme],Kd,[3],740 nM
same,Kd,[4],1840 nM
Plasmodium falciparum glyceraldehyde 3-phosphate dehydrogenase I209T variant (recombinant) (from UniProt Q8IKK7 4-335) (enzyme),stoichiometry N,[5],4 and 2
"Plasmodium falciparum glyceraldehyde 3-phosphate dehydrogenase, wild type (recombinant) (from UniProt Q8IKK7 4-335) (enzyme)",stoichiometry N,[6],4
O=C[C@H](O)COP(=O)(O)O [D-glyceraldehyde 3-phosphate],"Michaelis-Menten kinetics of purified enzyme (Abs340, NADH formation)",[1],"FSM-resistant and wild-type enzymes shared Michaelis-Menten constants for all three substrates NAD+, GAP, and Pi"

# Source: publication PMC9512246, “GAPDH mediates drug resistance and metabolism in Plasmodium falciparum malaria parasites” (PLoS Pathogens, 2022)
